Test results from US20210387992A1, “POLYMORPH FORM OF A MONOPHOSPHATE HYDRATE SALT OF A KNOWN TETRAHYDROISOQUINOLINE DERIVATIVE” (Pfizer Inc., priority 2019, published 2021).
Structures can show the parent of a compound that is named as a salt.

Tests used:
[1] = Hygroscopicity by Dynamic Vapor Sorption (DVS); assay type: physicochemical; conditions: 25° C.
Method: (§1) The hygroscopicity of the products of Reference Example 1 and Example 3 were tested using Dynamic Vapor Sorption (DVS). Surface Measurement Systems Ltd. Dynamic Vapour Sorption Advantage Equipment was used employing a 10% RH change at 25° C. starting at 40% RH and looping from 0% RH to 90% RH and back to 0% RH twice. […] Two full cycles from 0% RH to 90% RH were carried out. The percent mass increase with respect to the sample mass of the first exposure to 0% RH (dry weight) was calculated and is presented in Table 7. […] Also, a decrease in mass is noted at 80% RH consistent with a solid-state change, occurs at these conditions.

[2] = Solid-state physical stability: PXRD after the DVS run / exposure to high RH; assay type: physicochemical; conditions: for physical stability / structural change on water sorption (in words): DVS 0-90% RH, PXRD after the run
Method: as §1

Cc1ncnc2c1ccn2[C@@H]1C[C@H](Oc2cc(C(F)F)c(F)c3c2CNCC3)[C@@H](O)[C@H]1O [Phosphate, (1S,2S,3S,5R)-3-((6-(difluoromethyl)-5-fluoro-1,2,3,4-tetrahydroisoquinolin-8-yl)oxy)-5-(4-methyl-7H-pyrrolo[2,3-d]pyrimidin-7-yl)cyclopentane-1,2-diol monophosphate hydrate]
% Mass-Ref Dry mass ([1]; 10% RH, monophosphate hydrate): 3.4%
% Mass-Ref Dry mass ([1]; 20% RH, monophosphate hydrate): 3.7%
% Mass-Ref Dry mass ([1]; 30% RH, monophosphate hydrate): 3.9%
% Mass-Ref Dry mass ([1]; 40% RH, monophosphate hydrate): 4.1%
% Mass-Ref Dry mass ([1]; 50% RH, monophosphate hydrate): 4.3%
% Mass-Ref Dry mass ([1]; 60% RH): 4.5%
% Mass-Ref Dry mass ([1]; 70% RH, listed as Example 3 phosphate salt, monophosphate hydrate): 4.57%
% Mass-Ref Dry mass ([1]; 70% RH, monophosphate hydrate): 4.6%
% Mass-Ref Dry mass ([1]; 80% RH, monophosphate hydrate): 4.7%
% Mass-Ref Dry mass ([1]; 90% RH, monophosphate hydrate): 4.8%
physical stability / structural change on water sorption (in words) ([2]; listed as Example 3 phosphate salt, monophosphate hydrate): no structural changes caused by the water sorption

Cc1ncnc2c1ccn2[C@@H]1C[C@H](Oc2cc(C(F)F)c(F)c3c2CNCC3)[C@@H](O)[C@H]1O [di HCl, (1S,2S,3S,5R)-3-((6-(difluoromethyl)-5-fluoro-1,2,3,4-tetrahydroisoquinolin-8-yl)oxy)-5-(4-methyl-7H-pyrrolo[2,3-d]pyrimidin-7-yl)cyclopentane-1,2-diol (di) hydrochloride]
% Mass-Ref Dry mass ([1]; 0% RH, relative to mass at first exposure to 0% RH): 0.0%
hygroscopicity (in words) ([1]; 0-90% RH): very hygroscopic
% Mass-Ref Dry mass ([1]; 10% RH, hydrochloride): 2.9%
% Mass-Ref Dry mass ([1]; 20% RH, hydrochloride): 4.0%
% Mass-Ref Dry mass ([1]; 30% RH, hydrochloride): 4.9%
% Mass-Ref Dry mass ([1]; 40% RH, hydrochloride): 6.0%
% Mass-Ref Dry mass ([1]; 50% RH, hydrochloride): 7.6%
% Mass-Ref Dry mass ([1]; 60% RH, hydrochloride): 10.4%
% Mass-Ref Dry mass ([1]; 70% RH, hydrochloride): 14.7%
% Mass-Ref Dry mass ([1]; 70% RH, listed as diHCl salt, hydrochloride): 14.7%
% Mass-Ref Dry mass ([1]; 80% RH, hydrochloride): 12.0%
% Mass-Ref Dry mass ([1]; 90% RH, hydrochloride): 12.0%
physical stability / structural change on water sorption (in words) ([2]; listed as di-HCL salt, hydrochloride): not physically stable
relative humidity at which the amorphous salt crystallizes ([2]; PXRD after DVS run, 25° C.): ≥ 80 % RH
